Experimental data from US4272437A, “Antibacterial agents, and 4-thio azetidinone intermediates” (priority 1979, dated 1981).
Converted amounts (≈) assume the structure as drawn. Read-outs that look alike come from different tables or passages of the source.

Key:
Str. pneumoniae A-9585 = test: MIC, tube dilution, Streptococcus pneumoniae A9585; type: cell-based; conditions: overnight 37° C., Nutrient Broth; for MIC: Streptococcus pneumoniae, A9585, Str. pneumoniae A9585, read-out: Minimum Inhibitory Concentration (M.I.C.)
Excerpt: (§1) Representative compounds of the present invention were subjected to in vitro antibiotic screening against a variety of microorganisms.

Str. pyogenes A-9604 = test: MIC, tube dilution, Streptococcus pyogenes A9604; type: cell-based; conditions: overnight 37° C., Nutrient Broth; for MIC: Streptococcus pyogenes, A9604, Str. pyogenes A9604, read-out: Minimum Inhibitory Concentration (M.I.C.)
Excerpt: as §1

Staph. aureus A-9537 = test: MIC, tube dilution, Staphylococcus aureus A9537; type: cell-based; conditions: overnight 37° C., Nutrient Broth; for MIC: Staphylococcus aureus, A9537, Staph. aureus A9537, read-out: Minimum Inhibitory Concentration (M.I.C.)
Excerpt: as §1

[1] = system: Staph. aureus A-9537 and 50% serum; test: MIC, tube dilution, Staph. aureus A9537 + 50% serum; type: cell-based, Staphylococcus aureus; conditions: overnight 37° C.; for MIC: Staphylococcus aureus, read-out: Minimum Inhibitory Concentration (M.I.C.)
Excerpt: as §1

[2] = system: Staph. aureus (Pen-Res) A-9606; test: MIC, tube dilution, Staphylococcus aureus A9606 (Pen-Res); type: cell-based; conditions: overnight 37° C.; for MIC: Staphylococcus aureus
Excerpt: as §1

[3] = system: Staph. aureus (Meth-Res) A-15097; test: MIC, tube dilution, Staphylococcus aureus A15097 (Meth-Res); type: cell-based; conditions: overnight 37° C.; for MIC: Staphylococcus aureus
Excerpt: as §1

Str. faecalis A-20688 = test: MIC, tube dilution, Streptococcus faecalis A20688; type: cell-based; conditions: overnight 37° C.; for MIC: Enterococcus faecalis, A20688, Str. faecalis A20688, read-out: Minimum Inhibitory Concentration (M.I.C.)
Excerpt: as §1

E. coli A-15119 = test: MIC, tube dilution, Escherichia coli A15119; type: cell-based; conditions: overnight 37° C.; for MIC: Escherichia coli, A15119, E. coli A15119, read-out: Minimum Inhibitory Concentration (M.I.C.)
Excerpt: as §1

E. coli A-20341-1 = test: MIC, tube dilution, Escherichia coli A20341-1; type: cell-based; conditions: E. coli A20341-1, overnight 37° C.; for MIC: Escherichia coli, A203411, read-out: Minimum Inhibitory Concentration (M.I.C.)
Excerpt: as §1

K. pneumoniae A-15130 = test: MIC, tube dilution, Klebsiella pneumoniae A15130; type: cell-based; conditions: overnight 37° C.; for MIC: Klebsiella pneumoniae, A15130, K. pneumoniae A15130, read-out: Minimum Inhibitory Concentration (M.I.C.)
Excerpt: as §1

[4] = system: Klebsiella species A20468; test: MIC, tube dilution, Klebsiella species A20468; type: cell-based; conditions: Klebsiella species (K. pneumoniae) A20468, overnight 37° C.; for MIC: read-out: Minimum Inhibitory Concentration (M.I.C.)
Excerpt: as §1

Pr. mirabilis A-9900 = test: MIC, tube dilution, Proteus mirabilis A9900; type: cell-based; conditions: overnight 37° C.; for MIC: Proteus mirabilis, A9900, Proteus mirabilis A9900, read-out: Minimum Inhibitory Concentration (M.I.C.)
Excerpt: as §1

Pr. vulgaris A-9716 = test: MIC, tube dilution, Proteus vulgaris / Proteus mirabilis A9716; type: cell-based, Proteus vulgaris (name changed to Proteus mirabilis); conditions: overnight 37° C.; for MIC: Proteus vulgaris
Excerpt: as §1

Pr. morganii A-15153 = test: MIC, tube dilution, Proteus morganii A15153; type: cell-based; conditions: overnight 37° C.; for MIC: Morganella morganii, A15153, Proteus morganii A15153, read-out: Minimum Inhibitory Concentration (M.I.C.)
Excerpt: as §1

[5] = system: Providencia stuartii A21205; test: MIC, tube dilution, Providencia stuartii (Pr. rettgeri) A21205; type: cell-based; conditions: for MIC: Providencia stuartii
Excerpt: as §1

Ser. marcescens A-20019 = test: MIC, tube dilution, Serratia marcescens A20019; type: cell-based; conditions: overnight 37° C.; for MIC: Serratia marcescens, A20019, Serratia marcescens A20019, read-out: Minimum Inhibitory Concentration (M.I.C.)
Excerpt: as §1

Ent. cloacae A-9659 = test: MIC, tube dilution, Enterobacter cloacae A9659; type: cell-based; conditions: overnight 37° C.; for MIC: Enterobacter cloacae, A9659, Enterobacter cloacae A9659, read-out: Minimum Inhibitory Concentration (M.I.C.)
Excerpt: as §1

Ent. cloacae A-9656 = test: MIC, tube dilution, Enterobacter cloacae A9656; type: cell-based; conditions: overnight 37° C.; for MIC: read-out: Minimum Inhibitory Concentration (M.I.C.)
Excerpt: as §1

Ps. aeruginosa A-9843A = test: MIC, tube dilution, Pseudomonas aeruginosa A9843A; type: cell-based; conditions: overnight 37° C.; for MIC: Pseudomonas aeruginosa, A9843A, read-out: Minimum Inhibitory Concentration (M.I.C.), Pseudomonas aeruginosa A9843A
Excerpt: as §1

Ps. aeruginosa A-21213 = test: MIC, tube dilution, Pseudomonas aeruginosa A21213; type: cell-based; conditions: Pseudomonas aeruginosa A21213, overnight 37° C.; for MIC: read-out: Minimum Inhibitory Concentration (M.I.C.)
Excerpt: as §1

[6] = Staph. aureus A9606 (Pen-Res), read-out: Minimum Inhibitory Concentration (M.I.C.)
[7] = A9716, Proteus vulgaris / Proteus mirabilis A9716, read-out: Minimum Inhibitory Concentration (M.I.C.)
[8] = A21205, Providencia stuartii (Pr. rettgeri) A21205, overnight 37° C., read-out: Minimum Inhibitory Concentration (M.I.C.)
[9] = read-out: Minimum Inhibitory Concentration (M.I.C.), Staph. aureus A15097 (Meth-Res)

Row | SMILES | MIC (Str. pneumoniae A-9585) [µg/mL] | MIC (Str. pyogenes A-9604) [µg/mL] | MIC (Staph. aureus A-9537) [µg/mL] | MIC [1] [µg/mL] | MIC [2, 6] [µg/mL] | MIC (Str. faecalis A-20688) [µg/mL] | MIC (E. coli A-15119) [µg/mL] | MIC (E. coli A-20341-1) [µg/mL] | MIC (K. pneumoniae A-15130) [µg/mL] | MIC [4] [µg/mL] | MIC (Pr. mirabilis A-9900) [µg/mL] | MIC (Pr. vulgaris A-9716; [7]) [µg/mL] | MIC (Pr. morganii A-15153) [µg/mL] | MIC [5, 8] [µg/mL] | MIC (Ser. marcescens A-20019) [µg/mL] | MIC (Ent. cloacae A-9659) [µg/mL] | MIC (Ent. cloacae A-9656; Enterobacter cloacae A9656) [µg/mL] | MIC (Ps. aeruginosa A-9843A) [µg/mL] | MIC (Ps. aeruginosa A-21213) [µg/mL] | MIC [3, 9] [µg/mL] | further results
1 | CSC1C(=O)N2C(C(=O)O)=C(C)SC12 (stereo not shown) [Example 5, Potassium 6-Thiomethyl-2-methylpenem-3-carboxylate] | 0.5 | 4 | 4 | > 63 | 9 | 125 | 63 | 125 | 63 | > 125 | 63 | 32 | 125 | 32 | 63 | 125 | 125 | > 125 | > 125 | – | MIC ([3]; Staph. aureus A15097 (Meth-Res), read-out: Minimum Inhibitory Concentration (M.I.C.)): 63 µg/mL
2 | O=C(O)C1=C(COc2ccccc2)S[C@@H]2CC(=O)N12 [Example 11, 2-Phenoxymethylpenem-3-carboxylic Acid] | – | – | – | – | – | – | – | – | – | – | – | – | – | – | – | – | – | – | – | – | Minimum Inhibitory Concentration (M.I.C.) (Str. pneumoniae A-9585; Str. pneumoniae A9585): .5 µg/mL; Minimum Inhibitory Concentration (M.I.C.) (Str. pyogenes A-9604; Str. pyogenes A9604): .5 µg/mL; Minimum Inhibitory Concentration (M.I.C.) (Staph. aureus A-9537; Staph. aureus A9537): 1 µg/mL; Minimum Inhibitory Concentration (M.I.C.) [1]: 63 µg/mL; Minimum Inhibitory Concentration (M.I.C.) ([2]; Staph. aureus A9606 (Pen-Res)): .5 µg/mL; Minimum Inhibitory Concentration (M.I.C.) ([3]; Staph. aureus A15097 (Meth-Res)): 1 µg/mL; Minimum Inhibitory Concentration (M.I.C.) (Str. faecalis A-20688; Str. faecalis A20688): 63 µg/mL; Minimum Inhibitory Concentration (M.I.C.) (E. coli A-15119; E. coli A15119): 63 µg/mL; Minimum Inhibitory Concentration (M.I.C.) (E. coli A-20341-1): > 125 µg/mL; Minimum Inhibitory Concentration (M.I.C.) (K. pneumoniae A-15130; K. pneumoniae A15130): > 125 µg/mL; Minimum Inhibitory Concentration (M.I.C.) [4]: > 125 µg/mL; Minimum Inhibitory Concentration (M.I.C.) (Pr. mirabilis A-9900; Proteus mirabilis A9900): 16 µg/mL; Minimum Inhibitory Concentration (M.I.C.) (Pr. vulgaris A-9716; Proteus vulgaris / Proteus mirabilis A9716): 16 µg/mL; Minimum Inhibitory Concentration (M.I.C.) (Pr. morganii A-15153; Proteus morganii A15153): 16 µg/mL; Minimum Inhibitory Concentration (M.I.C.) ([5]; Providencia stuartii (Pr. rettgeri) A21205, overnight 37° C.): 63 µg/mL; Minimum Inhibitory Concentration (M.I.C.) (Ser. marcescens A-20019; Serratia marcescens A20019): > 125 µg/mL; Minimum Inhibitory Concentration (M.I.C.) (Ent. cloacae A-9659; Enterobacter cloacae A9659): > 125 µg/mL; Minimum Inhibitory Concentration (M.I.C.) (Ent. cloacae A-9656; Enterobacter cloacae A9656): > 125 µg/mL; Minimum Inhibitory Concentration (M.I.C.) (Ps. aeruginosa A-9843A; Pseudomonas aeruginosa A9843A): > 125 µg/mL; Minimum Inhibitory Concentration (M.I.C.) (Ps. aeruginosa A-21213): > 125 µg/mL
3 | O=C(O)C1=C(CCCCN2C(=O)c3ccccc3C2=O)SC2CC(=O)N12 (stereo not shown) [Example 43, 2-(4'-Phthalimido-1'-butyl)penem-3-carboxylic Acid] | 0.016 (≈ 0.043 µM) | 0.25 (≈ 0.671 µM) | 0.03 (≈ 0.0806 µM) | 63 | 16 (≈ 43 µM) | 16 (≈ 43 µM) | 63 (≈ 169 µM) | > 125 | > 125 | > 125 | 32 (≈ 85.9 µM) | 16 (≈ 43 µM) | 32 (≈ 85.9 µM) | 63 (≈ 169 µM) | 16 (≈ 43 µM) | > 125 | 125 (≈ 336 µM) | > 125 | > 125 | > 125 | –
4 | COCC1=C(C(=O)[O-])N2C(=O)C[C@H]2S1.[Na+] [Preparation 6, Sodium 2-Methoxymethylpenem-3-carboxylate] | 0.06 | 0.25 | 0.5 | 32 | – | 32 | 2 | 125 | 8 | > 125 | 2 | – | 4 | – | 4 | 4 | 8 | > 125 | > 125 | > 125 | MIC ([2]; read-out: Minimum Inhibitory Concentration (M.I.C.), Staph. aureus A9606 (Pen-Res)): 2 µg/mL; MIC (Pr. vulgaris A-9716; A9716, read-out: Minimum Inhibitory Concentration (M.I.C.), Proteus vulgaris / Proteus mirabilis A9716): 2 µg/mL; MIC ([5]; A21205, read-out: Minimum Inhibitory Concentration (M.I.C.)): 2 µg/mL
5 | O=C(O)C1=C(Cc2cccs2)SC2CC(=O)N12 (stereo not shown) [Preparation 8, 2-(2'-Thienyl)methyl-penem-3-carboxylic Acid] | 0.016 (≈ 0.0599 µM) | 0.03 (≈ 0.112 µM) | < 0.008 | > 63 | 4 (≈ 15 µM) | 32 (≈ 120 µM) | 1 (≈ 3.74 µM) | > 125 | 32 (≈ 120 µM) | > 125 | 0.5 (≈ 1.87 µM) | 1 (≈ 3.74 µM) | 1 (≈ 3.74 µM) | 1 (≈ 3.74 µM) | 32 (≈ 120 µM) | 16 (≈ 59.9 µM) | – | > 125 | > 125 | > 125 | MIC (Ent. cloacae A-9656; Enterobacter cloacae, A9656, Enterobacter cloacae A9656): 16 µg/mL (≈ 59.9 µM)
